In article PMC12777571, “The molecular basis of intrinsic resistance to azoles in Rhizopus arrhizus” (Antimicrobial Agents and Chemotherapy, 2025):
Where two headings read alike, the source gives them in different places.

Key:
[1] = molecular target: T1, RaCYP51-F5 + RaCPR (strain Y-F5/CPR and variants) (Rhizopus delemar, UniProt I1CTV4); test: biochemical
T1 construct: gene RO3G_16595
Excerpt: inhibition of BOMCC hydrolysis in crude membranes, fluorescence on RaCYP51-F5 + RaCPR (strain Y-F5/CPR and variants)

[2] = molecular target: T2, partially purified RaCYP51-F5 (Rhizopus delemar, UniProt I1CTV4); test: type II difference spectrum (Soret red shift); type: binding; details: 1.0 µM enzyme, 40 µM azole (saturating); heme iron coordination
T2 construct: gene RO3G_16595; full-length, codon-optimized, C-terminal GGR linker and 6xHis; expressed in S. cerevisiae ADΔΔ; Ni-NTA purified from n-decyl-β-D-maltoside extract; ~60 kDa
T2 sequence (I1CTV4 entry or part of it): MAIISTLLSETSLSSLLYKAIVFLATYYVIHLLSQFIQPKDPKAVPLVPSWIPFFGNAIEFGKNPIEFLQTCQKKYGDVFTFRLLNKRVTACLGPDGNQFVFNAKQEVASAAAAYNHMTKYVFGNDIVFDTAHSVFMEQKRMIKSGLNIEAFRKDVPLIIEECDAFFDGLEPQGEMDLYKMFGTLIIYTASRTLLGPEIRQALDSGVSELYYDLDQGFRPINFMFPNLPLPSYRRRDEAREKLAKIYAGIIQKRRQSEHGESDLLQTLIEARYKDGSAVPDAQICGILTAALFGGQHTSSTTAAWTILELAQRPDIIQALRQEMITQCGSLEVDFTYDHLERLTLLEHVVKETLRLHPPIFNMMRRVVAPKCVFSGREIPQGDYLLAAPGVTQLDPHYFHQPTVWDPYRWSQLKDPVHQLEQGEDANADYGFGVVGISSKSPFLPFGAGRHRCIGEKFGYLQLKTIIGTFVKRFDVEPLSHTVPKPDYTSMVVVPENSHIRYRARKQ

[3] = molecular target: T3, RaCYP51-F5 + RaCPR (strain Y-F5/CPR and variants) (Rhizopus delemar, UniProt I1CTV4, A291V/F129Y); test: inhibition of BOMCC hydrolysis in crude membranes, fluorescence; type: biochemical
T3 construct: gene RO3G_16595; full-length, codon-optimized, C-terminal GGR linker and 6xHis; co-expressed with 6xHis RaCPR in S. cerevisiae ADΔΔ deleted of native ERG11; crude membranes; ~60 kDa; with NADPH--cytochrome P450 reductase

[4] = molecular target: T4, RaCYP51-F5 + RaCPR (strain Y-F5/CPR and variants) (Rhizopus delemar, UniProt I1CTV4, A291V); test: as above; type: biochemical
T4 construct: gene RO3G_16595; full-length, codon-optimized, C-terminal GGR linker and 6xHis; co-expressed with 6xHis RaCPR in S. cerevisiae ADΔΔ deleted of native ERG11; crude membranes; ~60 kDa; with NADPH--cytochrome P450 reductase
T4 sequence (I1CTV4 whole entry, stated change not applied): as the sequence (I1CTV4 entry or part of it) above
T4 sequence (I1CM61 whole entry, stated change not applied, further chain): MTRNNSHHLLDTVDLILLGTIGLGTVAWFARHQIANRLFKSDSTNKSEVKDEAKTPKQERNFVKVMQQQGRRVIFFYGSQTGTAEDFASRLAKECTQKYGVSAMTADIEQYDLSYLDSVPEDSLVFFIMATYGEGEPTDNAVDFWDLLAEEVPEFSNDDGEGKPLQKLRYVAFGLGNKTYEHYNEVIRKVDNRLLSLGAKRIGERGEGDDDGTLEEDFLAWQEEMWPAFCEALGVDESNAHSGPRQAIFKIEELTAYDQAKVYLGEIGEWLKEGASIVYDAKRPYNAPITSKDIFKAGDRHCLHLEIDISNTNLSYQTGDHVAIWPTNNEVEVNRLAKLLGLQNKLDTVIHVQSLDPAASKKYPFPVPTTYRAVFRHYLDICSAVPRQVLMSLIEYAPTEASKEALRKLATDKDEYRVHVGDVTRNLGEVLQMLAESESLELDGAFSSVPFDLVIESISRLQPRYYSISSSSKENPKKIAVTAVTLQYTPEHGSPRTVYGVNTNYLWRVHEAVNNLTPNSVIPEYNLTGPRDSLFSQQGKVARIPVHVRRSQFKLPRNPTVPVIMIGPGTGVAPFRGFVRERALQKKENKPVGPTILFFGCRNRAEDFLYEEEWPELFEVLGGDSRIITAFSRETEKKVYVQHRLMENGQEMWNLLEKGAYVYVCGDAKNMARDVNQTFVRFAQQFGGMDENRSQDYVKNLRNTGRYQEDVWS

[5] = molecular target: T5, RaCYP51-F1 + RaCPR (strain Y-F1/CPR) (Rhizopus delemar, UniProt I1CF49); test: as above; type: biochemical
T5 construct: gene RO3G_11790; full-length, codon-optimized, C-terminal GGR linker and 6xHis; co-expressed with 6xHis RaCPR in S. cerevisiae ADΔΔ deleted of native ERG11; crude membranes; ~60 kDa; with NADPH--cytochrome P450 reductase
T5 sequence (I1CF49 entry or part of it): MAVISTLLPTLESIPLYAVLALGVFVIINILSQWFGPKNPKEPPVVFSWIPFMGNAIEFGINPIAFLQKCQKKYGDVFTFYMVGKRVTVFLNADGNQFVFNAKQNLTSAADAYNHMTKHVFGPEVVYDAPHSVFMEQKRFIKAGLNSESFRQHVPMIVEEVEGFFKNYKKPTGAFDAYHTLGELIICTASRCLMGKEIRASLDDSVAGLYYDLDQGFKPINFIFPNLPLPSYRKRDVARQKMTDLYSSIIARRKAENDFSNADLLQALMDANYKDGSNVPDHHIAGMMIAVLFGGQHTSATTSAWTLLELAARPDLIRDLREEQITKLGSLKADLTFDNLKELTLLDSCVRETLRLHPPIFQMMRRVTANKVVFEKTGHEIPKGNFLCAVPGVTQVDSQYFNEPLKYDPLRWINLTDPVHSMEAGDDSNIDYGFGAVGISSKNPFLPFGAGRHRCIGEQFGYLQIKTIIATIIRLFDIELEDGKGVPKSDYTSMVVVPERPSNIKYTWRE
T5 sequence (I1CM61 entry or part of it, further chain): as the sequence (I1CM61 whole entry, stated change not applied, further chain) above
Excerpt: inhibition of BOMCC hydrolysis in crude membranes, fluorescence on RaCYP51-F1 + RaCPR (strain Y-F1/CPR)

[6] = molecular target: T6, RaCYP51-F5 + RaCPR (strain Y-F5/CPR and variants) (Rhizopus delemar, UniProt I1CTV4, F129Y); test: as above; type: biochemical
T6 construct: gene RO3G_16595; full-length, codon-optimized, C-terminal GGR linker and 6xHis; co-expressed with 6xHis RaCPR in S. cerevisiae ADΔΔ deleted of native ERG11; crude membranes; ~60 kDa; with NADPH--cytochrome P450 reductase
T6 sequence (I1CM61 whole entry, stated change not applied): as the sequence (I1CM61 whole entry, stated change not applied, further chain) above
T6 sequence (I1CTV4 whole entry, stated change not applied): as the sequence (I1CTV4 entry or part of it) above

In the case of CC[C@@H]([C@H](C)O)n1ncn(-c2ccc(N3CCN(c4ccc(OC[C@@H]5CO[C@@](Cn6cncn6)(c6ccc(F)cc6F)C5)cc4)CC3)cc2)c1=O [posaconazole], the IC50 [1] is reported as 56 ± 28 nM, the “type II difference spectrum (Soret red shift)” value [2] is reported as “bound posaconazole or voriconazole upon exposure to saturating levels of these drugs” and the IC50 [3] is reported as 63 nM. The IC50 [4] was 55 ± 7 nM, the IC50 ([5]; read-out: Posaconazole IC50) was 21 ± 11 nM and the IC50 [6] was 75 ± 35 nM.
With C[C@@H](c1ncncc1F)[C@](O)(Cn1cncn1)c1ccc(F)cc1F [voriconazole] the IC50 [1] was greater than 1000 nM, the “type II difference spectrum (Soret red shift)” value [2] was “bound posaconazole or voriconazole upon exposure to saturating levels of these drugs” and the IC50 [3] was 60 ± 14 nM. For the same compound, the IC50 [4] was 500 nM, the IC50 ([5]; read-out: Voriconazole IC50) was 100 ± 70 nM and the IC50 [6] was 140 ± 57 nM.
